Results reported in patent publication US6545009B1, “Retinoid-related receptor function regulating agent” (Takeda Chemical Industries, Ltd., priority 1998, dated 2003).

Tests used:
[1] = target: T1, PPARγ-RXRα heterodimer (Homo sapiens, UniProt P19793+P37231); assay: PPARγ-RXRα heterodimer ligand activity (luciferase reporter in PPARγ:RXRα:4ERPP/CHO-K1 cells); type: cell-based; conditions: for EC50: luciferase fold induction, 48 hours
T1 construct: expressed in transfected cells; host or cells: CHO-K1
T1 sequence (P37231 1-477 isoform P37231-2): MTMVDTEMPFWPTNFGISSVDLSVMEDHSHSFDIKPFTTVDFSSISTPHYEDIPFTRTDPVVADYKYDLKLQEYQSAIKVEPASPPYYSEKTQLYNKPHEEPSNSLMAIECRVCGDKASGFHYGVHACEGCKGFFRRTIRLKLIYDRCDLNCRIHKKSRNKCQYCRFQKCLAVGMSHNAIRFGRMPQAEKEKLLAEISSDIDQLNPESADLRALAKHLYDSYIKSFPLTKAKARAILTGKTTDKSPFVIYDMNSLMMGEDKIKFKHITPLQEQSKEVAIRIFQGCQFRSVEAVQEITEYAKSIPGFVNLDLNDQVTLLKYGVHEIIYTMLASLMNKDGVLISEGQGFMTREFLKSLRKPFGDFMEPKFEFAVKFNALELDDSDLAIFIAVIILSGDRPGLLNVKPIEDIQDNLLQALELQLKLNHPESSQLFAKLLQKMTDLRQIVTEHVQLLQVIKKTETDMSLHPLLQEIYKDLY
T1 sequence (P19793 1-462): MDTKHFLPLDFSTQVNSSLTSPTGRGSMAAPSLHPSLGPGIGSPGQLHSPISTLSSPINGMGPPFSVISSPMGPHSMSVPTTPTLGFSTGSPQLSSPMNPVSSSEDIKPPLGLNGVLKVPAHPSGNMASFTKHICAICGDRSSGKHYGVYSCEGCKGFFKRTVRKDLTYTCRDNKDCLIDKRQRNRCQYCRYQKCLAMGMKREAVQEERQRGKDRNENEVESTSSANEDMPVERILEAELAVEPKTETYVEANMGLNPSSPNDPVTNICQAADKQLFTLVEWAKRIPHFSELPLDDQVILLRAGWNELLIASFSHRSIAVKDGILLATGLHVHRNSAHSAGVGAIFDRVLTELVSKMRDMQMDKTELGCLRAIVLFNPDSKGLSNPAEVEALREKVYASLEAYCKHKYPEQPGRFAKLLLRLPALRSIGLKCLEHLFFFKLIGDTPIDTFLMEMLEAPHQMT
Procedure: (§1) PPAR γ:RXR α:4ERPP/CHO-K1 cells obtained in Reference Example 5 were cultured in HAM F12 medium (produced by NISSUI SEIYAKU) containing 10% Fetal bovine serum (produced by Life Technologies, Inc., USA) and then inoculated to a 96-well white plate (produced by Corning Costar Corporation, USA) at the density of 2×10^4 cells/well, and cultured in a CO2 gas incubator at 37° C. overnight.
(§2) After washing the 96 well white plate with PBS (Phosphate-buffered saline), 90 μl of HAM F12 medium containing 0.1% fatty acid-free bovine serum albumin (BSA) and 10 μl of test compound were added to each well, and the plate was cultured in a CO2 gas incubator at 37° C. for 48 hours. After removing the medium, 40 μl of PIKKAGENE 7.5 (produced by Wako Pure Chemical Industries, Ltd.) was added to the well. After stirring, the luciferase activity was determined using Lumistar (produced by BMG Labtechnologies GmbH, Germany).
(§3) A fold induction was calculated based on the luciferase activity of each test compound by estimating the luciferase activity in the non-treatment group as 1. The values of the test compound concentration and the fold induction were used to calculate the EC50 values, the effective concentration of a test compound for 50% of the maximum fold induction, by using PRISM 2.01 (produced by GraphPad Software Inc. USA).
as §1, with “PPARγ:RXRα:4ERPP/CHO-K1” for “PPAR γ:RXR α:4ERPP/CHO-K1”, “Reference.” for “Reference”
as §2, with “7.5 produced” for “7.5 (produced”, “Labtechnologies Gmbh,” for “Labtechnologies GmbH,”
as §3, with “maximum” for “maximum fold”, “USA). The results are shown in [Table 1].” for “USA).”

[2] = test system: KKA^y mice; assay: Hypoglycemic and hypolipidemic (hypotriglyceridemic) activities in mice; type: in vivo; conditions: four days; for Hypoglycemic effect (%) / Hypolipidemic effect (%): 0.01% in powdered diet; for Hypoglycemic effect (%): reduction rate of plasma glucose compared with non-treatment group; for Hypolipidemic effect (%): reduction rate of plasma triglyceride compared with non-treatment group
Procedure: Test compound was mixed in a powdered diet (CE-2, Japan Clea) at the concentration of 0.01%, and freely given to KKA^y mice (9 to 12 weeks old, 5 mice in a group) a model of obese and non-insulin-dependent diabetes mellitus (Type 2 diabetes mellitus), for four days. […] During the experimental period, water was given freely Blood was obtained from orbital venous plexus, and glucose and triglyceride levels in plasma were determined enzymatically using L type Wako Glu2 (Wako Pure Chemical Industries, Ltd.) and L type Wako TG·H (Wako Pure Chemical Industries, Ltd.), respectively.
Test compound was mixed in a powdered diet (CE-2, Japan Clea) at the concentration of 0.01%, and freely given to KKA^y mice (9 to 12 weeks old, 5 mice in a group), a model of obese and.non-insulin-dependent diabetes mellitus (Type 2 diabtes mellitus), for four days. During this period, water was given freely. Blood was obtained from orbital venous plexus, and glucose and triglyceride levels in plasma were determined enzymatically using L type Wako Glu2 (Wako Pure Chemical Industries, Ltd.) and L type Wako TG·H (Wako Pure Chemical Industries, Ltd.), respectively.
The value of each treatment group is represented as reduction rate (%) compared with the non-treatment group, which is shown in [Table 2].

| EC50 [1] | melting point | PPARγ-RXRα heterodimer ligand activity ([1]; at a concentration ranging from 10^−5 M to 10^−9 M) | Compound | Hypoglycemic effect (%) [2] | Hypolipidemic effect (%) [2] | hypoglycemic activity ([2]; 0.01% in diet, dose ranging from 0.1 to 50 mg/kg/day, plasma glucose) | hypolipidemic (hypotriglyceridemic) activity ([2]; 0.01% in diet, dose ranging from 0.1 to 50 mg/kg/day, plasma triglyceride) |
| --- | --- | --- | --- | --- | --- | --- | --- |
| 92 nM |  |  | O=C(O)c1ccc(-c2nc(-c3ccc(Cl)cc3)co2)cc1 [Example 8, 4-[4-(4-chlorophenyl)-2-oxazolyl]benzoic acid] |  |  |  |  |
| 23 nM | 258 to 259 °C |  | O=C(O)c1ccc(-c2nc(-c3ccc(C(F)(F)F)cc3)co2)cc1 [Example 9, 4-[4-(4-trifluoromethylphenyl)-2-oxazolyl]benzoic acid] | 51% | 67% |  |  |
|  |  | potent | O=C(O)c1ccc(-c2nc(-c3ccc(Cl)cc3)cs2)cc1 [Example 52, 4-[4-(4-chlorophenyl)-2-thiazolyl]benzoic acid] |  |  | potent | potent |
| 68 nM | 164 to 165 °C |  | O=C(O)c1ccc(-c2nc(-c3ccc(C(F)(F)F)cc3)cs2)cc1 [Example 55, 4-[4-(4-trifluoromethylphenyl)-2-thiazolyl]benzoic acid] | 70% | 86% |  |  |
| 310 nM | 245 to 246 °C |  | O=C(O)c1ccc(-c2nc(-c3ccc(OC(F)(F)F)cc3)cs2)cc1 [Example 64, 4-[4-(4-trifluoromethoxylphenyl)-2-thiazolyl]benzoic acid] | 68% | 88% |  |  |
| 0.6 nM | 174 to 175 °C |  | Cc1cc(-c2csc(-c3cccc(C(=O)O)c3)n2)c(C)o1 [Example 72, 3-[4-(2,5-dimethyl-3-furyl)-2-thiazolyl]benzoic acid] |  |  |  |  |
| 100 nM | 241 to 242 °C |  | O=C(O)c1cccc(-c2nc(-c3cc(Cl)sc3Cl)cs2)c1 [Example 95, 3-[4-(2,5-dichloro-3-thienyl)-2-thiazolyl]benzoic acid] |  |  |  |  |
| 1.9 nM |  |  | CCOc1ccc(-c2csc(-c3cccc(C(=O)O)c3)n2)cc1 [Example 96, 3-[4-(4-ethoxyphenyl)-2-thiazolyl]benzoic acid] |  |  |  |  |
| 5.1 nM | 214 to 215 °C |  | CC(C)c1ccc(-c2csc(-c3cccc(C(=O)O)c3)n2)cc1 [Example 100, 3-[4-(4-isopropylphenyl)-2-thiazolyl]benzoic acid] |  |  |  |  |
| 48 nM | 253 to 254 °C |  | O=C(O)c1ccc(-c2cnc(-c3ccc(C(F)(F)F)cc3)o2)cc1 [Example 110, 4-[2-(4-trifluoromethylphenyl)-5-oxazolyl]benzoic acid] | 73% | 87% |  |  |
| 60 nM |  |  | O=C(O)c1ccc(-c2cnc(-c3ccc(C(F)(F)F)cc3)s2)cc1 [Example 113, 4-[2-(4-trifluoromethylphenyl)-5-thiazolyl]benzoic acid] | 45% | 53% |  |  |
